The test concerns the target T1, MR (Homo sapiens, UniProt P08235).
T1 construct: expressed in transfected cells; host or cells: HEPG2
T1 sequence (P08235 1-984): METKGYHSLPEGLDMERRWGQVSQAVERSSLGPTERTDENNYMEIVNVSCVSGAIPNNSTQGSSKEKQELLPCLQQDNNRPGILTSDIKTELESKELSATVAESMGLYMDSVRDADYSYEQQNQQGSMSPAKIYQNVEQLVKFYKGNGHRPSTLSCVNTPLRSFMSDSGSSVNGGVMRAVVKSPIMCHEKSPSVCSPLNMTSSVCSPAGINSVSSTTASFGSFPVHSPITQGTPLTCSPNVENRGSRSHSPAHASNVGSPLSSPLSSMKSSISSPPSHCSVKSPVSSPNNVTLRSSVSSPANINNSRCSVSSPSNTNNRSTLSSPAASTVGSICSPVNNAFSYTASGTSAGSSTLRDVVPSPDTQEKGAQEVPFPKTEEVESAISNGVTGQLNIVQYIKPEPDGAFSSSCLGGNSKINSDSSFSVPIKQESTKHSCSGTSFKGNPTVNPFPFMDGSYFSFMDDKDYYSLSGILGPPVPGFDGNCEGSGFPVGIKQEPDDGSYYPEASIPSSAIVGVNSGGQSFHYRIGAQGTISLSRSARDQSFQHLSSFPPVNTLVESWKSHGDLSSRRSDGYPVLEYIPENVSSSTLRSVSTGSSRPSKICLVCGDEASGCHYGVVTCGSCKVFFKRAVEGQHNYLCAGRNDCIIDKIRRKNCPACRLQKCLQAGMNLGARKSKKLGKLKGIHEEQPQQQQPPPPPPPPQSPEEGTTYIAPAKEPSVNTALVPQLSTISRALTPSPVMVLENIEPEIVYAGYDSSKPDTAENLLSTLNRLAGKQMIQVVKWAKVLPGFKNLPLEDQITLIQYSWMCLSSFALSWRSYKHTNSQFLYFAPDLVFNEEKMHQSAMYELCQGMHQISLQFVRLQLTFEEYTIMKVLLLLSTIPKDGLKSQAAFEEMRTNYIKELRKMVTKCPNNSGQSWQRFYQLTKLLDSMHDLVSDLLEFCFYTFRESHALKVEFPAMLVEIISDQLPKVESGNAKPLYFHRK
As to the kind of experiment: MR transcriptional reporter assay, antagonist mode (HEPG2 cells). Type of test: cell-based. The following applies: 1 nM aldosterone.

One may read the IC50 as the midpoint of a concentration-inhibition curve.

The compound `CC/C(=C(\c1ccc(O)cc1)c1ccc(OCCN(C)C)cc1)c1ccccc1` [4-OH Tam, 4-hydroxytamoxifen] displayed an IC50 of 6.42 ± 0.75 µM.
